Experiment [1] has as its system Atopobium-induced colitis in II10−/− mice. The experiment can be described thus: Atopobium-induced colitis in II10-/- mice under SPF conditions, treated or not with bismuth (colonoscopy, blinded histological inflammation score). Format: in vivo, mouse. The settings on record: A. parvulum-associated II10-/- mice, 6 weeks. From the text: (§1) To test the causative role of H2S-producing microbes in colitis, we assessed whether an H2S scavenger (bismuth) could alleviate Atopobium-induced colitis in II10^−/− mice. […] It should be noted that the intestines of IBD patients also display a similar increased number of lymphoid follicles^15. […] Increased GALT foci in Atopobium-associated mice could lead to an aberrant expression of lymphoid adhesion molecules and unwanted T cell activation towards commensal microbes. To assess the role of these commensal microbes in colitis development, germ-free mice were mono-associated with A. parvulum and kept under gnotobiotic conditions.
Colonic mucosal lavages and/or mucosal biopsies were collected from 157 pediatric subjects (84 Crohn's Disease, 20 Ulcerative Colitis, and 53 controls). […] Reads were quality filtered and QIIME ^23 was used to assign reads into operational taxonomic units (OTUs) against the Greengenes reference set. […] The generated raw data was processed and analyzed by MaxQuant against the decoy Uniport-human database with the protein-group file imported into Persus for statistical analysis. […] The transcript levels of TST, SQRDL and COX4-1 were quantified by RT-qPCR. […] Mouse colonoscopies were performed and histological inflammation was blindly scored as previously described ^25. Mice mucosal cytokines (Cxcl1, II12p40, II1β and II17a) were quantified by RT-qPCR. […]

Experiment [2] deals with GALT foci of II10−/− mice. Put plainly: Number of GALT foci in II10-/- mice associated with A. parvulum, SPF conditions. Format: in vivo, mouse. To be noted: Atopobium-associated II10-/- mice under SPF conditions; FIG. 4C. How it is done:
(§2) Statistical significance was assessed using a Kruskal-Wallis test with a Dunn's post hoc test.
as §1
(§3) To investigate involvement of complex biota and H2S in the development of colitis, we performed two subsequent experiments using 129/SvEv II-10^−/− mice. […] Mice were euthanized after 6 weeks of mono-association. […] Mice were fed with this diet starting 1 week before the colonization with A. parvulum. […] Mice were euthanized after 6 weeks of weekly infection with A. parvulum. […]
(§4) All animal protocols were approved by the Institutional Animal Care and Use Committee of the University of North Carolina at Chapel Hill. […] Histological images were acquired using a DP71 camera and DP Controller 3.1.1.276 (Olympus), and intestinal inflammation was scored as previously described^12. […]

The subject of experiment [3] is GALT foci of II10−/− mice. The experiment can be described thus: Number of GALT foci in II10-/- mice mono-associated with A. parvulum, gnotobiotic conditions. The class given is in vivo, mouse. To be noted: germ-free II10-/- mice mono-associated with A. parvulum, FIG. 4C. How it is done: as §2, §1, §3, §4
For the next experiment, the system named is A. parvulum. The experiment can be described thus: A. parvulum colonization level in stool of mono-associated II10-/- mice by real-time qPCR. The settings on record: 6 weeks, P=0.0001, FIG. 12B. The class given is in vivo, Atopobium parvulum. As to the method: Statistical significance was assessed using a Mann-Whitney U-test.
as §1
To investigate involvement of complex biota and H2S in the development of colitis, we performed two subsequent experiments using 129/SvEv II-10^−/− mice. […] Mice were euthanized after 6 weeks of mono-association. […] Mice were fed with this diet starting 1 week before the colonization with A. parvulum. […] Mice were euthanized after 6 weeks of weekly infection with A. parvulum. […] Mice were fed with this diet starting 1 week before the colonization with A. parvulum.

In experiment [4] the test system is gut microbiota of II10−/− mice. Put plainly: Gut microbiota composition of SPF and Atopobium-associated II10-/- mice, treated or not with bismuth (PCA, Table 6). Format: in vivo, mouse. From the text: To assess the role of these commensal microbes in colitis development, germ-free mice were mono-associated with A. parvulum and kept under gnotobiotic conditions. […] FIG. 12B). […] GF+bismuth (III) subsalicylate (n=10); 3: […] A. parvulum+bismuth (III) subsalicylate (n=11). Mice were euthanized after 6 weeks of mono-association. […] Mice were fed with this diet starting 1 week before the colonization with A. parvulum. […] SPF+bismuth (III) subsalicylate (n=8); 3: […] A. parvulum+bismuth (III) subsalicylate (n=8). Mice were euthanized after 6 weeks of weekly infection with A. parvulum. […] Mice were fed with this diet starting 1 week before the colonization with A. parvulum.

For `O=C([O-])c1ccccc1[O-].[Bi+3].[OH-]` [bismuth, Bismuth (III) subsalicylate], the inflammatory score entry in experiment [1] (bismuth 7 g/kg in chow, P=0.007, FIG. 4B) is “decrease inflammatory score”. For the same compound, the “colitis as evidenced by colonoscopy visualization” value in experiment [1] (bismuth (III) subsalicylate 7 g/kg in chow, FIG. 4A) is reported as “prevented colitis”. For the same compound, the “GALT formation (number of GALT foci)” value in experiment [2] is “did not prevent GALT formation”. Moreover, the GALT neogenesis entry in experiment [3] is listed as “prevented GALT neogenesis”. Moreover, the “A. parvulum colonization level (16S rDNA gene copies per mg of stool)” value in the experiment with A. parvulum is “reduced colonization level”. Further, in experiment [4] (Atopobium-associated II10-/- mice, SPF), the “microbiota of Atopobium-associated mice, abundance of butyrate-producers” value was “restores the microbiota of these mice toward a healthier community”. The microbiota composition entry in experiment [4] (SPF and Atopobium-associated II10-/- mice, Table 6) is on record as “altered the microbiota composition”.

For the origin of these results see US11104965B2, “Methods for the diagnosis and treatment of inflammatory bowel disease” (priority 2013, dated 2021).
